Source: paper PMC9767854, “Discovery and mechanism studies of a novel ATG4B inhibitor Ebselen by drug repurposing and its anti-colorectal cancer effects in mice” (Cell & Bioscience, 2022)

Experiments:
[1] = target: T1, ATG4B (Homo sapiens, UniProt Q9Y4P1); experiment: Gel-based assay (SDS-PAGE and CBB staining of FRET-GATE-16 cleavage); type: biochemical; conditions: 1 μM
T1 construct: 6xHis; made in house; host or cells: E. coli BL21(DE3)
T1 sequence (Q9Y4P1 1-393): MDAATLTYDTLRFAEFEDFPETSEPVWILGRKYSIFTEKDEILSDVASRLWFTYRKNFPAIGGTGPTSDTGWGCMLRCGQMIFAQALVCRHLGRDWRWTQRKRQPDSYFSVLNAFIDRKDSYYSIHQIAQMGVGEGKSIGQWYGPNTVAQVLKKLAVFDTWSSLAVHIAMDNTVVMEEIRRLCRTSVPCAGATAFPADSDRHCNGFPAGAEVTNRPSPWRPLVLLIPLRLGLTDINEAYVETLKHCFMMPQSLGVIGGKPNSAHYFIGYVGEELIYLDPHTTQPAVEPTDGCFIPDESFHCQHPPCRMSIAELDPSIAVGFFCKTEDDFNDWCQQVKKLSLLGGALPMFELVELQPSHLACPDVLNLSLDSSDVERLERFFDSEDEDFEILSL
Method: Taking ATG4B as the target, we used the high-throughput FRET-based assay to screen the FDA-approved drugs library containing 1600 compounds (Fig. 1A). […] (Additional file 1: Figure S1C). Then twenty-four candidate compounds (marked in red) were noted through an initial screening at 10 μM (Fig. 1B). To further validate their inhibitory effect, a more rigorous and authentic approach as gel-based assay was carried out (Fig. 1C). The brake of the cleavage reaction of the substrate FRET-GATE-16 was very intuitively reflective of the compounds’ inhibitory effect on the ATG4B enzymatic activity. […] This was also verified in the FRET- and gel-based full concentration-response plot of compound 669 (Fig. 1D, E).
Fig. 1 Screening of ATG4B inhibitors based on the approved drugs library by FRET assay. A Illustration of the FRET-based high-throughput screening platform for ATG4B inhibitors. B Scatter plot of inhibition rate of approved library for ATG4B based on FRET assay. Candidate compounds were marked in red. […] C The inhibitory effect of twenty-four candidate compounds (10 μM) were detected by SDS-PAGE and Coomassie brilliant blue (CBB) staining according to the cleavage of substrates. […] D The dose-dependent inhibition of compound 669 (Ebselen) were determined by SDS-PAGE.

[2] = target: T1, ATG4B; experiment: ATG4B oligomerization by non-reducing electrophoresis; type: biochemical; conditions: ATG4B 5 μM; Ebselen 5, 25, 50 μM or FMK-9a 50 μM; 0.5, 1, 3 h
From the text: The aggregates formed could be reversibly regulated by a reducing agent, because an assay to add dithiothreitol (DTT) into the reaction was operated. […] Furthermore, we also evaluated the redox properties of analogues on ATG4B.

[3] = test system: SW620; experiment: Autophagy flux by LC3B-II western blot in SW620; type: cell-based; conditions: Ebselen 10 μM with CQ 40 μM
Method: Fig. 5 Ebselen suppresses autophagy flux via inhibition of ATG4B. A, B HeLa cells were treated with Torin 1 (2 μM) or CQ (40 μM) and detected by western blot. C, D SW620 cells were transduced with sgCon and sgATG4B lentiviruses, respectively. Then cells were treated with CQ (40 μM) and detected by western blot. E, F HCT116 were treated with Ebselen (5 and 10 μM) or CQ (40 μM) and subjected to western blot. G, H SW620 were treated with Ebselen (10 μM) or CQ (40 μM) and western blotting was carried out to detect the protein levels. I, J Immunofluorescence analysis of endogenous LC3B in HCT116 treated with Ebselen (10 μM) or CQ (40 μM). Dots numbers for LC3B were derived from counting at least 20 cells and 5 fields from three independent replicated experiments. Bar = 10 μm. K HCT116 cells were treated with 2 μM Torin 1 in the presence or absence of 10 μM Ebselen for 12 h, then the level ratio of long-lived proteins was measured by flow cytometry
Immunoblotting assay was performed reportedly previously. Commonly, cells were lysed in ice-cold RIPA lysis buffer (Beyotime, P0013B) supplemented with Pierce™ protease inhibitor tablet (ThermoFisher Scientific, A32965). […]

[4] = test system: SW620 cell-based xenografts; experiment: SW620 subcutaneous xenograft tumor model; type: in vivo, BALB/c-nu/nu mice
Method: Fig. 7 Ebselen suppresses colorectal cancer tumor growth. A A brief diagram of the animal experiment for subcutaneous xenografted tumor model. 2 × 10^6 (2e^6) SW620 cells were xenografted into BALB/c-nu/nu mice by subcutaneous injection (s.c.). After 10 days, mice were injected intraperitoneally (i.p.) with indicated doses of Ebselen every two days, and monitoring of tumor volume and body weight changes were performed. B–D Representative tumor images and tumor weight at the end time point were captured from SW620 cell-based xenografts. Mean tumor weight ± SEM (C) and mean tumor volume ± SEM (D) were shown. E The inhibitory effect of ATG4 in xenografted tumors was detected by FRET assay. F, I The protein level of autophagy and apoptosis in xenografted tumors were detected by western blot. Representative results were shown and the statistical results of each group were obtained from seven mice. J, K The immunohistochemistry analysis of Ki67 in xenografted tumors (group vehicle and Ebselen 10 mg/kg). Bar = 20 μm. […]
Four- to six-weeks-old BALB/C nu/nu female mice purchased from the Experimental Animal Center of Sun Yat-Sen University, were approved by the Animal Ethics Committee at Sun Yat-sen University and kept in specific-pathogen-free environment. […] Tumor volume was measured by calipers and calculated using the equation: 0.5 × length × width^2. […]

[5] = test system: HCT116 based xenograft; experiment: HCT116 subcutaneous xenograft tumor model; type: in vivo, BALB/c-nu/nu mice; conditions: i.p., compared with SW620 xenografts
Method: Four- to six-weeks-old BALB/C nu/nu female mice purchased from the Experimental Animal Center of Sun Yat-Sen University, were approved by the Animal Ethics Committee at Sun Yat-sen University and kept in specific-pathogen-free environment. Approximately 2 × 10^6 SW620 cells or 1 × 10^7 HCT116 cells were injected subcutaneously into the dorsal flank on the right side of the mice. Different groups were divided randomly when the tumor volume was approximately 60–80 mm^3, before drug administration intraperitoneally (i.p.). Tumor volume was measured by calipers and calculated using the equation: 0.5 × length × width^2. At the end of the experiments, the mice were sacrificed and tumors were dissected and weighed. In particular, we employed Servicebio (Wuhan, China) to carry out H&E staining and immunohistochemistry assay.
Supplementary file 13578_2022_944_MOESM1_ESM.docx: Additional file 1: Figure S1. Screening of ATG4B inhibitors based on the approved drugs library by FRET assay. […] (D) Candidate compound number and name correspondence table, and IC50 calculation of nine commercially available compounds for ATG4B by FRET assay. Figure S2. […] Figure S3. […] Figure S5. […] Figure S6.

[6] = test system: ATG4 (mainly ATG4B) in tumors; experiment: ATG4 activity in xenografted tumors by FRET assay; type: in vivo, BALB/c-nu/nu mice; conditions: SW620 xenografts, 5, 10, 20 mg/kg
Method: FRET-based assay for ATG4B or ATG4A activity was operated as previously described [5, 17]. Briefly, Recombinant protein ATG4B (0.75 μg/ml) or ATG4A (5 μg/ml) was incubated with compounds in reaction buffer (150 mM NaCl, 20 mM Tris–HCl, pH 8.0, 0.1% CHAPS, 1 mM EDTA) at 37 °C. After 30 min, substrate FRET-GATE-16 (50 μg/ml) was added to a final volume of 50 μl. The reaction was recorded via relative fluorescence intensity ratio of 527 nm/477 nm (RFU). The final inhibition rate of the compound for ATG4 was calculated as: (RFUcompound-RFUNC)/(RFUCON-RFUNC) × 100%; respectively, NC as negative control without inhibitor, CON as control without enzymes. For ATG4 activity determination in cells and tissues, cells or separated tumor samples were homogenized in a native lysis buffer (150 mM NaCl, 20 mM Tris–HCl, pH 7.6, 1% TritonX-100, 1 mM EDTA) without protease inhibitors. Then 5 μg total proteins from each sample was added into FRET assay system after clean supernatant proteins were separated. The reaction was recorded via relative fluorescence intensity ratio of 527 nm/477 nm. Finally, the inhibition rates of ATG4B were calculated with the vehicle or CM group as the negative control (ATG4 activity defined as 100%).

`O=c1c2ccccc2[se]n1-c1ccccc1` [Ebselen] was tested, and the “inhibition of ATG4B in gel” value [1] was “complete inhibition”, the ATG4B oligomerization [2] was “oligomerization occurred” and the “autophagic flux (LC3B-II)” value [3] was “inhibition of autophagic flux”. For the same compound, the anti-tumor effect ([4]; 5 mg/kg i.p. every two days) was “obvious anti-tumor effect”, the growth of tumors ([4]; 5, 10, 20 mg/kg i.p. every two days, compared with vehicle) was “significantly suppress the growth of tumors” and the tumor suppression [5] was “slightly weaker potential for tumor suppression”. The “activity of ATG4 in tumors” value [6] was “significantly inhibited in a dose-dependent manner”.
